Read-outs that look alike come from different tables or passages of the source.
Target: T1, GPR119 (Homo sapiens, UniProt Q8TDV5)
T1 sequence (Q8TDV5 1-335): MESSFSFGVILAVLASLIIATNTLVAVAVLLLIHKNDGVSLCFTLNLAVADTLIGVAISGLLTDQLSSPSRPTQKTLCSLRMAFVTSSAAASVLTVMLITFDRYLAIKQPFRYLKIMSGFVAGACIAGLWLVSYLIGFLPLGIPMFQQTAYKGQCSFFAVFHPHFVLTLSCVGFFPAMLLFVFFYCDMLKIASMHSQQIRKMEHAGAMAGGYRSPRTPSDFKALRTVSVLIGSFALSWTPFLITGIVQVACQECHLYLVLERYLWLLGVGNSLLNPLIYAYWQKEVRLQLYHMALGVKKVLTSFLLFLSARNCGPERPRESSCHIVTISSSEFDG
Experiment: LANCE Ultra cAMP assay: stimulation of GPR119-mediated cAMP production in CHO cells stably expressing human GPR119 receptor
Format: cell-based
Conditions: for Emax: CHO, read-out: % cAMP Max. relative to forscolin
Method: The potency of GPR119 receptor agonists was assessed by measuring the stimulation of GPR119-mediated cAMP production with LANCE Ultra cAMP assay (Perkin Elmer, TRF0264) in CHO cells stably expressing human GPR119 receptor (Chantest, cat. #A633). CHO-GPR119 cells were cultured in DMEM/F12 medium supplemented with 10% FBS and 1% NEAA at 37° C., 5% CO2, aliquoted and frozen in liquid nitrogen.
(§1) For assay, cells were thawed in a water bath at 37° C., washed in Hank's Balanced Salt Solution (HBSS) and resuspended in Stimulation Buffer 1 (SB1) for 30 min: 5 mM HEPES, pH 7.2-7.4, 0.1% BSA in HBSS. […] The ULight-anti-cAMP antibody (Perkin Elmer, TRF0264) was added to the cell suspension making Mix [Cell suspension/4× ULight-anti-cAMP antibodies]. […] The assay plate was centrifuged 200 g, 5 sec.
Serial dilution (100×) of tested compounds were prepared in DMSO in the range of from 30 nM to 1 mM with half-log step in 384-well plates (Greiner, 781280) using Biomek 2000. 10 test concentrations in two repeats were prepared for each CRC. […] The assay plate was incubated 30 minutes at room temperature on a shaker, 250 rpm to allow GPR119 receptor stimulation. The cAMP level was determined according to the standard kit supplier protocol (PerkinElmer, cat. #TRF0264).
(§2) The stock solution of the Eu-cAMP tracer (Perkin Elmer, TRF0264) was diluted 1:100 in cAMP Detection Buffer (Perkin Elmer, TRF0264), making 2× working concentration and added to the assay plate, 10 μL per well. Assay plate was centrifuged 180 g, 1 sec. Then the assay plate was incubated for 60′ at room temperature on shaker, 250 rpm to allow cAMP detection. The TR-FRET signal was measured at Ex-340 nm/Em-615 and Ex-340 nm/Em-665 nm on the reader Tecan M1000. 0% of cAMP stimulation corresponds to the cells with DMSO only, 100% of cAMP stimulation corresponds to the cells with 10 uM Forskolin. The EC50 value defined as the concentration of the drug that gives half-maximal response, were calculated using GraphPad Prizm 5.0 software with forskolin was used as references at each test. Entries 1-17 in Table A-2 show the biological activity of certain representative compounds using the protocol as described above.
as §1, with “cell suspension,” for “cell suspension”
as §2, with “1-14” for “1-17”, “B-2” for “A-2”

[1] = Table A-2 entries 1-17, protocol as described, 100% = 10 uM Forskolin
[2] = Table A-2 entries 1-17, protocol as described (800 000 cells/mL, 5 uL/well), CHO-GPR119 cells
[3] = Table A-2 entries 18-25, modified protocol, 500 cells/well

Row | Compound | Emax [1] [%] | EC50 [2] [nM] | Emax [3] [%] | EC50 [3] [nM]
1 | CC(C)(C)N1CCC(COc2ccc(-c3ccc4c(c3)OCS4(=O)=O)cc2F)CC1 [A-13] | 75 | 833 |  | 
2 | CN(C)C(=O)N1CCC(COc2ccc(-c3ccc4c(c3)OCS4(=O)=O)cc2F)CC1 [A-14] | 77 | 86.4 |  | 
3 | CC(C)(C)C(=O)N1CCC(COc2ccc(-c3ccc4c(c3)OCS4(=O)=O)cc2F)CC1 [A-15] | 80 | 61.7 |  | 
4 | NCC(=O)N1CCC(COc2ccc(-c3ccc4c(c3)OCS4(=O)=O)cc2F)CC1 [A-17] | 67 | ≥ 10000 |  | 
5 | CC(C)[C@H](N)C(=O)N1CCC(COc2ccc(-c3ccc4c(c3)OCS4(=O)=O)cc2F)CC1 [A-19] | 65 | 4080 |  | 
6 | NC(=O)N1CCC(COc2ccc(-c3ccc4c(c3)OCS4(=O)=O)cc2F)CC1 [A-20] | 70 | ≥ 10000 |  | 
7 | CC(C)C(=O)N1CCC(COc2ccc(-c3ccc4c(c3)OCS4(=O)=O)cc2F)CC1 [A-21] | 77 | 37 |  | 
8 | CCc1cnc(N2CCC(COc3ccc(-c4ccc5c(c4)OCS5(=O)=O)cc3F)CC2)nc1 [A-24] | 77 | 2.5 |  | 
9 | O=S1(=O)COc2cc(-c3cnc(OCC4CCN(c5ncc(Cl)cn5)CC4)nc3)ccc21 [A-29, 6-(2-((1-(5-Chloropyrimidin-2-yl)piperidin-4-yl)methoxy)pyrimidin-5-yl)-2H-benzo[d][1,3]oxathiole 3,3-dioxide] | 80 | 33.1 |  | 
10 | O=S1(=O)COc2ccc(-c3ccc(OCC4CCN(c5ncc(Cl)cn5)CC4)c(F)c3)cc21 [A-40] | 65 | 369 |  | 
11 | O=S1(=O)COc2cc(-c3ccc(OCC4CCN(c5ncncn5)CC4)c(F)c3)ccc21 [A-42, 6-(4-((1-(1,3,5-Triazin-2-yl)piperidin-4-yl)methoxy)-3-fluorophenyl)-2H-benzo[d][1,3]oxathiole 3,3-dioxide] | 75 | 102 |  | 
12 | O=S1(=O)COc2cc(-c3ccc(OCC4CN(c5ncc(Cl)cn5)C4)c(F)c3)ccc21 [A-48, 6-(4-((1-(5-Chloropyrimidin-2-yl)azetidin-3-yl)methoxy)-3-fluorophenyl)-2H-benzo[d][1,3]oxathiole 3,3-dioxide] | 80 | 67 |  | 
13 | CC(C)c1noc(N2CC(COc3ccc(-c4ccc5c(c4)OCS5(=O)=O)cc3F)C2)n1 [A-52, 6-(3-Fluoro-4-((1-(3-isopropyl-1,2,4-oxadiazol-5-yl)azetidin-3-yl)methoxy)phenyl)-2H-benzo[d][1,3]oxathiole 3,3-dioxide] | 81 | 24 |  | 
14 | O=S1(=O)COc2cc(-c3ccc(OCc4cnc(C5CCN(c6ncc(Cl)cn6)CC5)s4)c(F)c3)ccc21 [Example A-58, 6-(4-((2-(1-(5-Chloropyrimidin-2-yl)piperidin-4-yl)thiazol-5-yl)methoxy)-3-fluorophenyl)-2H-benzo[d][1,3]oxathiole-3,3-dioxide] | 73 | 96 |  | 
15 | CC(C)c1noc(N2CCC(COc3ccc(-c4ccc5c(c4)OCS5(=O)=O)cc3F)CC2)n1 [Example A-59, 6-(3-Fluoro-4-((1-(3-isopropyl-1,2,4-oxadiazol-5-yl)piperidin-4-yl)methoxy)phenyl)-2H-benzo[d][1,3]oxathiole 3,3-dioxide] | 77 | 5.4 |  | 
16 | O=S1(=O)COc2cc(-c3ccc(N4CCN(c5ncc(Cl)cn5)CC4)c(F)c3)ccc21 [Example A-65, 6-(4-(5-Chloropyrimidin-2-yl)piperazin-1-yl)-3-fluorophenyl-2H-benzo[d][1,3]oxathiole 3,3-dioxide] | 84 | 112 |  | 
17 | CC(C)c1cnc(N2CCC(COc3ccc(-c4ccc5c(c4)OCS5(=O)=O)cc3F)CC2)nc1 [Example A-66, 6-(3-Fluoro-4-(1-(5-isopropylpyrimidin-2-yl)piperidin-4-yl)methoxy)phenyl-2H-benzo[d][1,3]oxathiole 3,3-dioxide] |  |  | 80 | 19.1
